Laboratory results from patent US8778871B2 (Takeda Pharmaceutical Company Limited, priority 2004, dated 2014).
Non-standard residues stand in square brackets, D forms with d. Residues, ends and D or L forms follow the SMILES beside them. No end group written: not given here. Phe(3-Cl) = N[C@@H](Cc1cccc(Cl)c1)C(=O)O; Phe(4-Cl) = N[C@@H](Cc1ccc(Cl)cc1)C(=O)O; Phe(4-NH2) = Nc1ccc(C[C@H](N)C(=O)O)cc1; Phe(2-Cl) = N[C@@H](Cc1ccccc1Cl)C(=O)O; 1Nal = N[C@@H](Cc1cccc2ccccc12)C(=O)O; 2Nal = N[C@@H](Cc1ccc2ccccc2c1)C(=O)O; Arg(Me) = CNC(=N)NCCC[C@H](N)C(=O)O; azaGly = NNC(=O)O

Tests used:
hOT7T175 [1] = biological target: T1, hOT7T175 (Homo sapiens, UniProt Q969F8, L364H); experiment: Intracellular Ca ion level-increasing activity using FLIPR (180 seconds; specific activity to Metastin (1-54)); format: cell-based; conditions: hOT7T175/CHO, relative to Metastin (1-54) = 1
T1 construct: expressed in transfected cells

hOT7T175 [2] = biological target: T1, hOT7T175; format: cell-based; conditions: hOT7T175/CHO, FLIPR, evaluation for 40 seconds after initiation of the reaction
Protocol: The intracellular Ca ion level-increasing activity was measured using FLIPR as in TEST EXAMPLE 2.

T1 sequence (Q969F8 whole entry L364H): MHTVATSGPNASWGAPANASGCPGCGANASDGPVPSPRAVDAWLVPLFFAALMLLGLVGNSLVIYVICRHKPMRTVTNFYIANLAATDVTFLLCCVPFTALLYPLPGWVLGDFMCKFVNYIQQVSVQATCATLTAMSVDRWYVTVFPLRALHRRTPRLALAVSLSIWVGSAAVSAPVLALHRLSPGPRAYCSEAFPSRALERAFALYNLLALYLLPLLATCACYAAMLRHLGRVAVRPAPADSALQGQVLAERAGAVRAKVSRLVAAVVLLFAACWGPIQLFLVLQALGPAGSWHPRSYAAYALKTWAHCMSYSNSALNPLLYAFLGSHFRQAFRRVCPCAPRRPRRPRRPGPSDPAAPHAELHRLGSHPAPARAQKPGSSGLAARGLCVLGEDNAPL

Compound	Specific Act. (intracellular Ca ion level-increasing activity, specific activity to Metastin (1-54)) (hOT7T175 [1])	Specific Act. (EC50/MS10 EC50) (hOT7T175 [2])
CC(C)C[C@H](NC(=O)CNC(=O)[C@H](Cc1ccccc1)NC(=O)[C@H](CO)NC(=O)[C@H](CC(N)=O)NC(=O)[C@@H](Cc1c[nH]c2ccccc12)NC(=O)[C@H](CC(N)=O)NC(=O)[C@@H](N)Cc1ccc(O)cc1)C(=O)N[C@@H](CCCNC(=N)N)C(=O)N[C@@H](Cc1ccccc1)C(N)=O [Compound No. 40]	30	1.6
CC(C)C[C@H](NC(=O)CNC(=O)[C@H](Cc1ccccc1)NC(=O)[C@H](CO)NC(=O)[C@H](CC(N)=O)NC(=O)[C@H](Cc1c[nH]c2ccccc12)NC(=O)[C@@H](CC(N)=O)NC(=O)[C@@H](N)Cc1ccc(O)cc1)C(=O)N[C@@H](CCCNC(=N)N)C(=O)N[C@@H](Cc1ccccc1)C(N)=O [Compound No. 41]	10	2.7
CC[C@H](C)[C@H](NC(=O)[C@H](CC(N)=O)NC(=O)[C@H](N)Cc1ccc(O)cc1)C(=O)N[C@@H](CC(N)=O)C(=O)N[C@@H](CO)C(=O)N[C@@H](Cc1ccccc1)C(=O)NNC(=O)N[C@@H](CC(C)C)C(=O)N[C@@H](CCCNC(=N)NC)C(=O)N[C@@H](Cc1ccccc1)C(N)=O [Compound No. 233, D-Tyr-Asn-Ile-Asn-Ser-Phe-AzaGly-Leu-Arg(Me)-Phe-NH2] (H-[dY]NINSF[azaGly]L[Arg(Me)]F-NH2)	1	
CNC(=N)NCCC[C@H](NC(=O)[C@H](CC(C)C)NC(=O)NNC(=O)[C@H](Cc1ccccc1)NC(=O)[C@H](CO)NC(=O)[C@H](CC(N)=O)NC(=O)[C@@H](NC(=O)[C@H](CC(N)=O)NC(=O)[C@H](N)Cc1ccc(O)cc1)C(C)C)C(=O)N[C@@H](Cc1ccccc1)C(N)=O [Compound No. 234, D-Tyr-Asn-Val-Asn-Ser-Phe-AzaGly-Leu-Arg(Me)-Phe-NH2] (H-[dY]NVNSF[azaGly]L[Arg(Me)]F-NH2)	1	
CNC(=N)NCCC[C@H](NC(=O)[C@H](CC(C)C)NC(=O)NNC(=O)[C@H](Cc1ccccc1)NC(=O)[C@H](CO)NC(=O)[C@H](CC(N)=O)NC(=O)[C@H](C)NC(=O)[C@H](CC(N)=O)NC(=O)[C@H](N)Cc1ccc(O)cc1)C(=O)N[C@@H](Cc1ccccc1)C(N)=O [Compound No. 235, D-Tyr-Asn-Ala-Asn-Ser-Phe-AzaGly-Leu-Arg(Me)-Phe-NH2] (H-[dY]NANSF[azaGly]L[Arg(Me)]F-NH2)	1	
CNC(=N)NCCC[C@H](NC(=O)[C@H](CC(C)C)NC(=O)NNC(=O)[C@H](Cc1ccccc1)NC(=O)[C@H](CO)NC(=O)[C@H](CC(N)=O)NC(=O)[C@@H](Cc1c[nH]c2ccccc12)NC(=O)[C@H](CC(N)=O)NC(=O)[C@H](N)Cc1ccc(O)cc1)C(=O)N[C@@H](Cc1ccccc1)C(N)=O [Compound No. 236, D-Tyr-Asn-D-Trp-Asn-Ser-Phe-AzaGly-Leu-Arg(Me)-Phe-NH2]	2	
CNC(=N)NCCC[C@H](NC(=O)[C@H](CC(C)C)NC(=O)NNC(=O)[C@H](Cc1ccccc1)NC(=O)[C@H](CO)NC(=O)[C@H](CC(N)=O)NC(=O)[C@H](Cc1c[nH]c2ccccc12)NC(=O)[C@@H](CC(N)=O)NC(=O)[C@H](N)Cc1ccc(O)cc1)C(=O)N[C@@H](Cc1ccccc1)C(N)=O [Compound No. 237, D-Tyr-D-Asn-Trp-Asn-Ser-Phe-AzaGly-Leu-Arg(Me)-Phe-NH2]	3	
CNC(=N)NCCC[C@H](NC(=O)[C@H](CC(C)C)NC(=O)NNC(=O)[C@H](Cc1ccccc1)NC(=O)[C@H](CO)NC(=O)[C@H](CC(N)=O)NC(=O)[C@@H](Cc1c[nH]c2ccccc12)NC(=O)[C@@H](CC(N)=O)NC(=O)[C@H](N)Cc1ccc(O)cc1)C(=O)N[C@@H](Cc1ccccc1)C(N)=O [Compound No. 238, D-Tyr-D-Asn-D-Trp-Asn-Ser-Phe-AzaGly-Leu-Arg(Me)-Phe-NH2]	1	
CNC(=N)NCCC[C@H](NC(=O)[C@H](CC(C)C)NC(=O)NNC(=O)[C@H](Cc1ccccc1)NC(=O)[C@H](CO)NC(=O)[C@H](CC(N)=O)NC(=O)[C@H](Cc1ccccc1)NC(=O)[C@H](CC(N)=O)NC(=O)[C@H](N)Cc1ccc(O)cc1)C(=O)N[C@@H](Cc1ccccc1)C(N)=O [Compound No. 244, D-Tyr-Asn-Phe-Asn-Ser-Phe-AzaGly-Leu-Arg(Me)-Phe-NH2] (H-[dY]NFNSF[azaGly]L[Arg(Me)]F-NH2)	1	
CNC(=N)NCCC[C@H](NC(=O)[C@H](CC(C)C)NC(=O)NNC(=O)[C@H](Cc1ccccc1)NC(=O)[C@H](CO)NC(=O)[C@H](CC(N)=O)NC(=O)[C@H](Cc1cccc2ccccc12)NC(=O)[C@H](CC(N)=O)NC(=O)[C@H](N)Cc1ccc(O)cc1)C(=O)N[C@@H](Cc1ccccc1)C(N)=O [Compound No. 245, D-Tyr-Asn-Nal(1)-Asn-Ser-Phe-AzaGly-Leu-Arg(Me)-Phe-NH2] (H-[dY]N[1Nal]NSF[azaGly]L[Arg(Me)]F-NH2)	1	
CNC(=N)NCCC[C@H](NC(=O)[C@H](CC(C)C)NC(=O)NNC(=O)[C@H](Cc1ccccc1)NC(=O)[C@H](CO)NC(=O)[C@H](CC(N)=O)NC(=O)[C@H](Cc1ccc2ccccc2c1)NC(=O)[C@H](CC(N)=O)NC(=O)[C@H](N)Cc1ccc(O)cc1)C(=O)N[C@@H](Cc1ccccc1)C(N)=O [Compound No. 246, D-Tyr-Asn-Nal(2)-Asn-Ser-Phe-AzaGly-Leu-Arg(Me)-Phe-NH2] (H-[dY]N[2Nal]NSF[azaGly]L[Arg(Me)]F-NH2)	2	
CNC(=N)NCCC[C@H](NC(=O)[C@H](CC(C)C)NC(=O)NNC(=O)[C@H](Cc1ccccc1)NC(=O)[C@H](CO)NC(=O)[C@H](CC(N)=O)NC(=O)[C@H](Cc1ccccc1Cl)NC(=O)[C@H](CC(N)=O)NC(=O)[C@H](N)Cc1ccc(O)cc1)C(=O)N[C@@H](Cc1ccccc1)C(N)=O [Compound No. 247, D-Tyr-Asn-Phe(2Cl)-Asn-Ser-Phe-AzaGly-Leu-Arg(Me)-Phe-NH2] (H-[dY]N[Phe(2-Cl)]NSF[azaGly]L[Arg(Me)]F-NH2)	1	
CNC(=N)NCCC[C@H](NC(=O)[C@H](CC(C)C)NC(=O)NNC(=O)[C@H](Cc1ccccc1)NC(=O)[C@H](CO)NC(=O)[C@H](CC(N)=O)NC(=O)[C@H](Cc1cccc(Cl)c1)NC(=O)[C@H](CC(N)=O)NC(=O)[C@H](N)Cc1ccc(O)cc1)C(=O)N[C@@H](Cc1ccccc1)C(N)=O [Compound No. 248, D-Tyr-Asn-Phe(3Cl)-Asn-Ser-Phe-AzaGly-Leu-Arg(Me)-Phe-NH2] (H-[dY]N[Phe(3-Cl)]NSF[azaGly]L[Arg(Me)]F-NH2)	2	
CNC(=N)NCCC[C@H](NC(=O)[C@H](CC(C)C)NC(=O)NNC(=O)[C@H](Cc1ccccc1)NC(=O)[C@H](CO)NC(=O)[C@H](CC(N)=O)NC(=O)[C@H](Cc1ccc(Cl)cc1)NC(=O)[C@H](CC(N)=O)NC(=O)[C@H](N)Cc1ccc(O)cc1)C(=O)N[C@@H](Cc1ccccc1)C(N)=O [Compound No. 249, D-Tyr-Asn-Phe(4Cl)-Asn-Ser-Phe-AzaGly-Leu-Arg(Me)-Phe-NH2] (H-[dY]N[Phe(4-Cl)]NSF[azaGly]L[Arg(Me)]F-NH2)	1	
CNC(=N)NCCC[C@H](NC(=O)[C@H](CC(C)C)NC(=O)NNC(=O)[C@H](Cc1ccccc1)NC(=O)[C@H](CO)NC(=O)[C@H](CC(N)=O)NC(=O)[C@H](Cc1ccc(N)cc1)NC(=O)[C@H](CC(N)=O)NC(=O)[C@H](N)Cc1ccc(O)cc1)C(=O)N[C@@H](Cc1ccccc1)C(N)=O [Compound No. 250, D-Tyr-Asn-Phe(4NH2)-Asn-Ser-Phe-AzaGly-Leu-Arg(Me)-Phe-NH2] (H-[dY]N[Phe(4-NH2)]NSF[azaGly]L[Arg(Me)]F-NH2)	1	
CNC(=N)NCCC[C@H](NC(=O)[C@H](CC(C)C)NC(=O)NNC(=O)[C@H](Cc1ccccc1)NC(=O)[C@H](CO)NC(=O)[C@H](CC(N)=O)NC(=O)[C@H](Cc1ccccc1)NC(=O)[C@H](N)Cc1ccc(O)cc1)C(=O)N[C@@H](Cc1ccccc1)C(N)=O [Compound No. 254, D-Tyr-Phe-Asn-Ser-Phe-AzaGly-Leu-Arg(Me)-Phe-NH2] (H-[dY]FNSF[azaGly]L[Arg(Me)]F-NH2)	1	
CNC(=N)NCCC[C@H](NC(=O)[C@H](CC(C)C)NC(=O)NNC(=O)[C@H](Cc1ccccc1)NC(=O)[C@H](CO)NC(=O)[C@H](CC(N)=O)NC(=O)[C@H](Cc1ccc2ccccc2c1)NC(=O)[C@H](N)Cc1ccc(O)cc1)C(=O)N[C@@H](Cc1ccccc1)C(N)=O [Compound No. 255, D-Tyr-Nal(2)-Asn-Ser-Phe-AzaGly-Leu-Arg(Me)-Phe-NH2] (H-[dY][2Nal]NSF[azaGly]L[Arg(Me)]F-NH2)	1	
D-Tyr-Asn-Trp-Gln-Ser-Phe-Gly-Leu-Arg(Me)-Phe-NH2 ([dY]NWQSFGL[Arg(Me)]F-NH2) [Compound No. 209]	½	
D-Tyr-Asn-Trp-Ser-Ser-Phe-Gly-Leu-Arg(Me)-Phe-NH2 ([dY]NWSSFGL[Arg(Me)]F-NH2) [Compound No. 207]	½	
H-DNWNSFGLRF-NH2 [Compound No. 75]	1	
H-YNWNLFGLRF-NH2 [Compound No. 24]	1	
H-YNWNSFALRF-NH2 [Compound No. 50]	30	
H-YNWNSFSLRF-NH2 [Compound No. 101]	10	
